We go through one compound from patent US20220160712A1, “METHODS OF TREATING RHEUMATOID ARTHRITIS AND FOR PREDICTING THE RESPONSE TO METHOTREXATE” (CHAN ZUCKERBERG BIOHUB, INC., priority 2020, published 2022).

Series [1] in a line: Predicted concentration of MTX in the gastrointestinal (GI) tract. More on the design: species or system human. The conditions noted are these: for predicted concentration of MTX in the proximal GI tract: RA oral dose 25 mg divided by 250 ml. How it is done: The predicted concentration of MTX in the proximal GI tract was estimated by taking the oral dose used for rheumatoid arthritis (25 mg) and dividing it by 250 ml Dahlgren, D., and Lennernas, H. (2019), Pharmaceutics 11, 411; Dressman, J. B., et al., (1985), J Pharm Sci 74, 588-589; Shekhawat, P.B., and Pokharkar, V. B. (2017), Acta Pharm Sin B 7, 260-280), giving a concentration of 100 μg/ml or 220 μM. Further refinement of this estimate was done based on variations in the absorption of oral MTX in the proximal intestine (Grim, J., et al., (2003), Clin Pharmacokinet 42, 139-151), where it is estimated that 10-70% of the dose is not absorbed and instead delivered to the distal GI tract in RA patients. Thus, the estimated range of MTX in the GI tract was calculated to be 10-70 μg/ml with 100 μg/ml being the highest predicted concentration (prior to absorption by the host). When considering the doses used for cancer therapy (50 mg/day of oral MTX), the predicted range is 20-140 μg/ml with 200 μg/ml being the highest dose. MTX can also be given intravenously (IV) or intrathecally for the treatment of cancer (Treon, S. P., and Chabner, B. A. (1996), Clin Chem 42, 1322-1329), and is typically given at much higher doses, including as high as 800-1000 mg IV over 24 hours for the treatment of cancers such as lymphoma or acute lymphoblastic leukemia. Assuming that 30% of this is enterohepatically circulated et al., (1982), Cancer Res 42, 1279-1282), then between 240 and 300 mg would enter the GI tract, and the predicted concentration in the GI tract would be between 960-1200 μg/ml.

Series [2] relates to C. symbiosum. Briefly: RNA-seq after MTX treatment. The format is cell-based, Clostridium symbiosum. Conditions: MTX 100 μg/ml, 30 minutes; padj<0.2, DESeq. Here is the method: Genomes were obtained from NCBI's GenBank Assembly database. Culture media was composed of BHI+and allowed to equilibrate in an anaerobic environment prior to use. Briefly, bacteria were cultured in BHI+at 37° C. in an anaerobic chamber. Cultures for each isolate were grown to mid-exponential (achieving an OD600˜0.5), aliquoted into triplicates, treated for 30 minutes with either DMSO or MTX 100 μg/ml, and then removed from the anaerobic chamber. […]
Total RNA was subjected to rRNA depletion using Ribo-Zero Bacterial rRNA Depletion (Illumina, catalog #: MRZB12424), following the manufacturer's protocol. […] For each sample, fastq files are available in NCBI's Sequence Read Archive (SRA), accession number PRJNA656577.
Reads were trimmed using Trimmomatic (v0.32) (Bolger, A. M., et al., (2014), Bioinformatics 30, 2114-2120), and ribosomal reads were removed using SortMeRNA (v2.1) (Kopylova, E., et al., (2012), Bioinformatics 28, 3211-3217). Reads were mapped to reference genomes using Bowtie2 (Langmead, B., and Salzberg, S. L. (2012), Nat Methods 9, 357-359) using the following options: -q, —met file, —end-to-end, —sensitive. […]

Series [3] can be described thus: Targeted LC-MS for MTX in RA donor stool samples used for fecal transplant. The conditions noted are these: limit of quantification 100 nM. Further details: species or system human.
The conditions of series [4]: newly diagnosed RA patients; cited from earlier work.
[5] abbreviates: cancer therapy, 50 mg/day oral MTX.

Structures are written as SMILES. Values joined by “and” are separate entries in the source; they are usually repeats but may differ in a detail not shown here. Equal values may be shown once.

`CN(Cc1cnc2nc(N)nc(N)c2n1)c1ccc(C(=O)N[C@@H](CCC(=O)O)C(=O)O)cc1` [MTX, methotrexate]: the “predicted concentration in the GI tract” value in series [1] (800-1000 mg IV over 24 hours, assuming 30% enterohepatically circulated) is 960 to 1200 µg/mL. The “estimated concentration of MTX in the proximal gastrointestinal (GI) tract” value in series [1] (Example 2) is 22-220 μM and 10-100 μg/ml. For the same compound, in series [1] (RA dose, 10-70% of the dose not absorbed), the “estimated range of MTX in the GI tract” value is 10 to 70 µg/mL. In addition, the “predicted concentration of MTX in the proximal GI tract” value in series [1] was 220 µM. In addition, the “predicted concentration of MTX in the proximal GI tract” value in series [1] (highest, prior to absorption) was 100 µg/mL. In series [1] (setting [5]), the “highest predicted concentration of MTX in the GI tract” value was 200 µg/mL and the “predicted range of MTX in the GI tract” value was 20 to 140 µg/mL. Further, the “number of differentially expressed genes” value in series [2] is 55 genes. For the same compound, the “MTX in pre-MTX and post-MTX stool samples from RA donors” value in series [3] is on record as “not detected”. Further, in series [4], the “patients with a robust response without escalation of therapy” value is on record as around 33%.
